The target in this assay is T1, human TREM2 (Homo sapiens, UniProt Q9NZC2).
T1 construct: expressed in transfected cells; host or cells: HEK293T-hTREM2 cells (HEK cell line expressing human TREM2 and DAP12)
The assay is described as follows: TREM2 agonist potency by cellular phosphorylation of Syk (AlphaLisa) in HEK293T-hTREM2 cells expressing human TREM2 and DAP12. The format is cell-based. The procedure:
In vitro Measurement of Triggering Receptor Expressed on Myeloid Cells 2 activity using cellular phosphorylation of Spleen Tyrosine Kinase (“Syk”) Assays
Measurement of TREM2 agonist potency was done using a HEK cell line expressing human TREM2 and DAP12 (HEK293T-hTREM2 cells). Binding of small molecules to, and activation of, TREM2 increases the phosphorylation of Syk. The resultant levels of Syk phosphorylation are measured using a commercial AlphaLisa reagent kit. To perform the assay, HEK-hTREM2 cells were plated at 14,000 cells per well in a 384 well plate, in 25 μL of complete growth media and incubated at 37° C., 5% CO2 for 20-24 hours.
Prior to the assay, test compounds were diluted in the 384 well plates in assay buffer and allowed to equilibrate for 30 minutes. Growth media was removed from cell plates by inversion on blotting paper, and 25 μL of test articles in assay buffer was added to cells. Cells were incubated for 45 minutes at room temperature. After 45 minutes, assay buffer was removed and 10 μL of lysis buffer was added. Plates were shaken for 20 minutes at 350 RPM at room temperature. After complete lysis, AlphaLisa reagents were added to the lysate, and fluourescence intensity was measured using a Perkin Elmer Envision plate reader. Intensities were used to generate a standard curve, and % activation was calculated. Curve fitting was performed using Prism v9 software, log(agonist) vs response—variable slope (four parameters), and EC50s were calculated from the curve fit.
The results presented in Table B have been generated with the in vitro assay described above. This assay may be used to test any of the compounds described herein to assess and characterize a compound's ability to act as an agonist of TREM2.
(In general: Bead proximity is the source of the signal in Alpha formats.)

Setting [1] is: HEK293 cells expressing hTREM2 and DAP12, 45 minutes at room temperature, Syk phosphorylation, AlphaLisa, read-out: hTREM2 EC50.

Like-named read-outs stand apart in the source and are kept apart here. A value given as a limit tells only on which side of the number the result lay.

T1 sequence (Q9NZC2 19-230): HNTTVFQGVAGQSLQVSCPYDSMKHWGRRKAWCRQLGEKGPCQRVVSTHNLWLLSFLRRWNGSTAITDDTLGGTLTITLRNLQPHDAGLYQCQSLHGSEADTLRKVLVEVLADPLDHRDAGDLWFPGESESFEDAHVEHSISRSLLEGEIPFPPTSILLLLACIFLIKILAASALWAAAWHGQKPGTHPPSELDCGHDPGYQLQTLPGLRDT
T1 sequence (O43914 22-113 partner): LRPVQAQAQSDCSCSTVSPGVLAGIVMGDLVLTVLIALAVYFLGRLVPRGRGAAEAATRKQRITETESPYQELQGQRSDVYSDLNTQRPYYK

The term EC50 denotes the midpoint of the concentration-response curve. Turning to `Cc1nc2nc([C@H]3CCO[C@@H](c4cnn(C5CC5)c4)C3)nc(C34CC(C(F)(F)F)(C3)C4)c2cc1-c1ccn(C)n1` [Example 27, 2-((2R,4S)-2-(1-cyclopropyl-1H-pyrazol-4-yl)tetrahydro-2H-pyran-4-yl)-7-methyl-6-(1-methyl-1H-pyrazol-3-yl)-4-(3-(trifluoromethyl)-bicyclo[1.1.1]pentan-1-yl)pyrido[2,3-d]pyrimidine], under setting [1], the 50% effective concentration (EC50) was 100 to 500 nM.

Take `Cc1nc2nc([C@H]3CCO[C@@H](c4cnn(C5CC5)c4)C3)nc(C34CC(C(F)(F)F)(C3)C4)c2cc1-c1cn(C)nn1` [Example 28, 2-((2R,4S)-2-(1-cyclopropyl-1H-pyrazol-4-yl)tetrahydro-2H-pyran-4-yl)-7-methyl-6-(1-methyl-1H-1,2,3-triazol-4-yl)-4-(3-(trifluoromethyl)-bicyclo[1.1.1]pentan-1-yl)pyrido[2,3-d]pyrimidine]: the EC50 under setting [1] was above 500 nM.

With `Cc1nc2nc([C@H]3CCO[C@@H](c4cnn(C5CC5)c4)C3)nc(C34CC(C(F)(F)F)(C3)C4)c2cc1C#N` [Example 29, 2-[(2R,4S)-2-(1-cyclopropylpyrazol-4-yl)tetrahydropyran-4-yl]-7-methyl-4-[3-(trifluoromethyl)-1-bicyclo[1.1.1]pentanyl]pyrido[2,3-d]pyrimidine-6-carbonitrile], under setting [1], the EC50 was below 100 nM.

In the case of `Cc1nc2nc([C@H]3CCO[C@@H](c4cnn(C5CC5)c4)C3)nc(C34CC(C(F)(F)F)(C3)C4)c2cc1S(C)(=O)=O` [Example 31, 2-[(2R,4S)-2-(1-cyclopropylpyrazol-4-yl)tetrahydropyran-4-yl]-7-methyl-6-methylsulfonyl-4-[3-(trifluoromethyl)-1-bicyclo[1.1.1]pentanyl]pyrido[2,3-d]pyrimidine], under setting [1], the EC50 was below 100 nM.

Consider `Cc1nc2nc([C@H]3CCO[C@@H](c4cnn(C5CC5)c4)C3)nc(C34CC(C(F)(F)F)(C3)C4)c2cc1[S+](C)[O-]` (stereo partly drawn) [Example 32, 2-[(2R,4S)-2-(1-cyclopropylpyrazol-4-yl)tetrahydropyran-4-yl]-7-methyl-6-methylsulfinyl-4-[3-(trifluoromethyl)-1-bicyclo[1.1.1]pentanyl]pyrido[2,3-d]pyrimidine], for which the EC50 under setting [1] was below 100 nM.

For `Cc1noc(-c2cc3c(C4CCCCC4)nc(N4C[C@@H](C)O[C@@H](c5cnn(C6CC6)c5)C4)nc3nc2C)n1` [Example 33, (2S,6R)-4-[4-cyclohexyl-7-methyl-6-(3-methyl-1,2,4-oxadiazol-5-yl)-pyrido[2,3-d]pyrimidin-2-yl]-2-(1-cyclopropylpyrazol-4-yl)-6-methyl-morpholine], the EC50 under setting [1] is below 100 nM.

On to `Cc1nc2nc(N3C[C@@H](C)O[C@@H](c4cnn(C5CC5)c4)C3)nc(C3CCCCC3)c2cc1C#N` [Example 35, 4-cyclohexyl-2-[(2S,6R)-2-(1-cyclopropylpyrazol-4-yl)-6-methyl-morpholin-4-yl]-7-methyl-pyrido[2,3-d]pyrimidine-6-carbonitrile], for which the EC50 under setting [1] is below 100 nM.

As to `Cc1nc2nc(N3C[C@@H](C)O[C@@H](c4cnn(C5CC5)c4)C3)nc(C3CCC3)c2cc1C#N` [Example 42, 4-cyclobutyl-2-((2S,6R)-2-(1-cyclopropyl-1H-pyrazol-4-yl)-6-methylmorpholino)-7-methylpyrido[2,3-d]pyrimidine-6-carbonitrile], the EC50 under setting [1] was 100 to 500 nM.

Regarding `Cc1noc(-c2cc3c(C4CCCCC4)nc(N4CCO[C@@H](c5cnn(C)c5)C4)nc3nc2C)n1` [Example 44, (2S)-4-[4-cyclohexyl-7-methyl-6-(3-methyl-1,2,4-oxadiazol-5-yl)-pyrido [2,3-d]-pyrimidin-2-yl]-2-(1-methyl-pyrazol-4-yl) morpholine], the EC50 under setting [1] was 100 to 500 nM.

With `Cc1nc2nc(N3CCO[C@@H](c4cnn(C)c4)C3)nc(C3CCCCC3)c2cc1C#N` [Example 45, 4-cyclohexyl-7-methyl-2-[(2S)-2-(1-methyl-pyrazol-4-yl)morpholin-4-yl]pyrido[2,3-d]pyrimidine-6-carbonitrile], under setting [1], the EC50 lay in the range of 100 to 500 nM.

For `Cc1cc([C@H]2CN(c3nc(C4CCCCC4)c4cc(C#N)c(C)nc4n3)CCO2)cnn1` [Example 46, 4-cyclohexyl-7-methyl-2-[2-(6-methyl-pyridazin-4-yl)morpholin-4-yl]-pyrido[2,3-d]pyrimidine-6-carbonitrile], the EC50 under setting [1] is below 100 nM.

Consider `Cc1cc2c(C3CCCC3)nc(N3C[C@@H](C)O[C@@H](c4cnn(C5CC5)c4)C3)nc2nc1C` [Example 65, (2S,6R)-4-(4-cyclopentyl-6,7-dimethylpyrido[2,3-d]pyrimidin-2-yl)-2-(1-cyclopropylpyrazol-4-yl)-6-methylmorpholine], for which the EC50 under setting [1] was below 100 nM.

Regarding `Cc1nc2nc(N3C[C@@H](C)O[C@@H](c4cnn(C(F)F)c4)C3)nc(C34CC(C(F)(F)F)(C3)C4)c2cc1C#N` [Example 66, 2-[(2S,6R)-2-[1-(difluoromethyl)pyrazol-4-yl]-6-methyl-morpholin-4-yl]-7-methyl-4-[3-(trifluoromethyl)-1-bicyclo[1.1.1]pentanyl]pyrido[2,3-d]pyrimidine-6-carbonitrile], under setting [1], the EC50 was below 100 nM.

`Cc1cc2c(-n3cccc3)nc(N3C[C@@H](C)O[C@@H](c4cnn(C5CC5)c4)C3)nc2nc1C` [Example 67, (2S,6R)-2-(1-cyclopropyl-pyrazol-4-yl)-4-(6,7-dimethyl-4-pyrrol-1-yl-pyrido[2,3-d]pyrimidin-2-yl)-6-methyl-morpholine] gave an EC50 of 100 to 500 nM.

Compound `Cc1cc2c(-c3ccccc3)nc(N3C[C@@H](C)O[C@@H](c4cnn(C5CC5)c4)C3)nc2nc1C` [Example 68, (2S,6R)-2-(1-cyclopropylpyrazol-4-yl)-4-(6,7-dimethyl-4-phenylpyrido[2,3-d]pyrimidin-2-yl)-6-methyl-morpholine] displayed an EC50 below 100 nM.

Consider `Cc1cc2c(-c3cccs3)nc(N3C[C@@H](C)O[C@@H](c4cnn(C5CC5)c4)C3)nc2nc1C` [Example 69, (2S,6R)-2-(1-cyclopropyl-pyrazol-4-yl)-4-[6,7-dimethyl-4-(2-thienyl)pyrido-[2,3-d]pyrimidin-2-yl]-6-methyl-morpholine], for which the concentration for a half-maximal effect (EC50) under setting [1] fell in the range of 100 to 500 nM.

In the case of `Cc1nc2nc(N3C[C@@H](C)O[C@@H](c4cnn(CC(F)F)c4)C3)nc(C34CC(C(F)(F)F)(C3)C4)c2cc1C#N` [Example 70, 2-((2S,6R)-2-(1-(2,2-difluoroethyl)-1H-pyrazol-4-yl)-6-methyl-morpholino)-7-methyl-4-(3-(trifluoromethyl)bicyclo[1.1.1]pentan-1-yl)pyrido[2,3-d]pyrimidine-6-carbonitrile], the EC50 under setting [1] is below 100 nM.

On to `COCn1cc([C@H]2CN(c3nc(C45CC(C(F)(F)F)(C4)C5)c4cc(C#N)c(C)nc4n3)C[C@@H](C)O2)cn1` [Example 71], for which the EC50 under setting [1] was below 100 nM.

With `Cc1nc2nc(N3C[C@@H](C)O[C@@H](c4cnn(C5CC5)c4)C3)nc(C3CCCC3)c2cc1C#N` [Example 72, 4-cyclopentyl-2-[(2S,6R)-2-(1-cyclopropyl-pyrazol-4-yl)-6-methyl-morpholin-4-yl]-7-methyl-pyrido[2,3-d]pyrimidine-6-carbonitrile], the EC50 under setting [1] is below 100 nM.

With `Cc1nc2nc(N3C[C@@H](C)O[C@@H](c4cnn(C5CC5)c4)C3)nc(C34CC(C(F)F)(C3)C4)c2cc1C#N` [Example 73, 2-((2S,6R)-2-(1-cyclopropyl-1H-pyrazol-4-yl)-6-methylmorpholino)-4-(3-(difluoromethyl)bicyclo[1.1.1]pentan-1-yl)-7-methylpyrido[2,3-d]pyrimidine-6-carbonitrile], the EC50 under setting [1] is below 100 nM.

Turning to `Cc1nc2nc(N3C[C@@H](C)O[C@@H](c4cnn(C5CC5)c4)C3)nc(C34CC(C(F)(F)F)(C3)C4)c2cc1C(F)(F)F` [Example 74, (2S,6R)-2-(1-cyclopropyl-1H-pyrazol-4-yl)-6-methyl-4-(7-methyl-6-(trifluoromethyl)-4-(3-(trifluoromethyl)-bicyclo[1.1.1]pentan-1-yl)pyrido[2,3-d]pyrimidin-2-yl)morpholine], under setting [1], the EC50 was below 100 nM.

Regarding `Cc1nc2nc(N3C[C@@H](C)O[C@@H](c4cnn(C5CC5)c4)C3)nc(C34CC(C(F)(F)F)(C3)C4)c2nc1C1COC1` [Example 84, (2S,6R)-2-(1-cyclopropyl-pyrazol-4-yl)-6-methyl-4-[7-methyl-6-(oxetan-3-yl)-4-[3-(trifluoromethyl)-1-bicyclo[1.1.1]pentanyl]-pteridin-2-yl]morpholine], under setting [1], the 50% effective concentration (EC50) was below 100 nM.

With `Cc1nc2nc(N3C[C@@H](C)O[C@@H](c4cnn(C5CC5)c4)C3)nc(C34CC(C(F)(F)F)(C3)C4)c2nc1C1CN(C(=O)OC(C)(C)C)C1` [Example 86, tert-butyl 3-[2-[(2S,6R)-2-(1-cyclopropylpyrazol-4-yl)-6-methyl-morpholin-4-yl]-7-methyl-4-[3-(trifluoromethyl)-1-bicyclo[1.1.1]pentanyl]pteridin-6-yl]azetidine-1-carboxylate], the EC50 under setting [1] is above 500 nM.

For the origin of these results see patent US20260327225A1, “HETEROCYCLIC COMPOUNDS AS TRIGGERING RECEPTOR EXPRESSED ON MYELOID CELLS 2 AGONISTS AND METHODS OF USE” (VIGIL NEUROSCIENCE, INC., priority 2023, published 2026).
